# Assay results published in article PMC5578959, “Selective LRRK2 kinase inhibition reduces phosphorylation of endogenous Rab10 and Rab12 in human peripheral mononuclear blood cells” (Scientific Reports, 2017).
# How the values were obtained:
# RAB12 = test: Phosphoproteomic analysis, immune stimulated human PBMCs; format: cell-based; details: 100 nM, 24 hrs
# Description: (§1) Freshly isolated PBMCs were plated at a density ranging from 7–20 × 10^6 cells in 10 cm petri dishes (Costar 3262) in RPMI-1640 media (Gibco 61870–010) supplemented with 10% non-heat inactivated FBS, 5 ml Antimycotic (Sigma cat:5965) with or without an immune stimulation cocktail consisting of 400 nM phorbol 12-myristate 13-acetate (PMA) and 100 ng/ml interferon-γ (INF-γ). After 48 hrs in culture the cultures were added a fifth of the volume media containing 5x the final concentration of the respective LRRK2 inhibitor with or without PMA and interferon-γ. […] Approximately, 400 µg of protein from each individual donor was needed in order to run the full PBMC stimulation and inhibition study with subsequent global proteome and phosphoproteome (PhosphoScout®) analyses. […]
# (§2) Upon the respective treatments cells were washed with cold PBS, snap-frozen in liquid N2 and shipped to Evotec on dry-ice. […] Cell lysis was performed in ice-cold lysis buffer (8 M urea, 50 mM Tris pH 8.2, 10 mM sodium pyrophosphate, 5 mM EDTA, 5 mM EGTA, 10 mM sodium fluoride, 10 mM β-glycerophosphate, 10 mM sodium orthovanadate, phosphatase inhibitor cocktail 2 and 3 (Sigma, 1:100 (v/v)) and Complete protease inhibitor cocktail tablets (Roche). Cell extracts were sonicated on ice and the cell debris was removed by centrifugation before protein concentrations were determined (Bradford, BioRad). […]
# RAB10 = test: as above; format: cell-based; details: 100 nM, 24 hrs
# Description: as §1, §2
# [1] = tested on: Regulator of telomere elongation helicase 1 (RTEL1); test: Global proteome analysis, immune stimulated human PBMCs; format: cell-based; details: 100 nM, 24 hrs
# Description: as §1, §2
# LRRK2 = test: as above; format: cell-based; details: 100 nM, 24 hrs, not statistically significant (q-value: 0.08)
# Description: as §1, §2
# LRRK2 WT = LRRK2 WT (Homo sapiens, UniProt Q5S007); test: Odyssey CLx 96-well ICW assay, LRRK2-Ser935 phosphorylation in transfected HEK293 cells; format: cell-based; details: transiently transfected HEK293 cells, 1 h, mean, n = 3
# Sequence of LRRK2 WT (Q5S007 whole entry): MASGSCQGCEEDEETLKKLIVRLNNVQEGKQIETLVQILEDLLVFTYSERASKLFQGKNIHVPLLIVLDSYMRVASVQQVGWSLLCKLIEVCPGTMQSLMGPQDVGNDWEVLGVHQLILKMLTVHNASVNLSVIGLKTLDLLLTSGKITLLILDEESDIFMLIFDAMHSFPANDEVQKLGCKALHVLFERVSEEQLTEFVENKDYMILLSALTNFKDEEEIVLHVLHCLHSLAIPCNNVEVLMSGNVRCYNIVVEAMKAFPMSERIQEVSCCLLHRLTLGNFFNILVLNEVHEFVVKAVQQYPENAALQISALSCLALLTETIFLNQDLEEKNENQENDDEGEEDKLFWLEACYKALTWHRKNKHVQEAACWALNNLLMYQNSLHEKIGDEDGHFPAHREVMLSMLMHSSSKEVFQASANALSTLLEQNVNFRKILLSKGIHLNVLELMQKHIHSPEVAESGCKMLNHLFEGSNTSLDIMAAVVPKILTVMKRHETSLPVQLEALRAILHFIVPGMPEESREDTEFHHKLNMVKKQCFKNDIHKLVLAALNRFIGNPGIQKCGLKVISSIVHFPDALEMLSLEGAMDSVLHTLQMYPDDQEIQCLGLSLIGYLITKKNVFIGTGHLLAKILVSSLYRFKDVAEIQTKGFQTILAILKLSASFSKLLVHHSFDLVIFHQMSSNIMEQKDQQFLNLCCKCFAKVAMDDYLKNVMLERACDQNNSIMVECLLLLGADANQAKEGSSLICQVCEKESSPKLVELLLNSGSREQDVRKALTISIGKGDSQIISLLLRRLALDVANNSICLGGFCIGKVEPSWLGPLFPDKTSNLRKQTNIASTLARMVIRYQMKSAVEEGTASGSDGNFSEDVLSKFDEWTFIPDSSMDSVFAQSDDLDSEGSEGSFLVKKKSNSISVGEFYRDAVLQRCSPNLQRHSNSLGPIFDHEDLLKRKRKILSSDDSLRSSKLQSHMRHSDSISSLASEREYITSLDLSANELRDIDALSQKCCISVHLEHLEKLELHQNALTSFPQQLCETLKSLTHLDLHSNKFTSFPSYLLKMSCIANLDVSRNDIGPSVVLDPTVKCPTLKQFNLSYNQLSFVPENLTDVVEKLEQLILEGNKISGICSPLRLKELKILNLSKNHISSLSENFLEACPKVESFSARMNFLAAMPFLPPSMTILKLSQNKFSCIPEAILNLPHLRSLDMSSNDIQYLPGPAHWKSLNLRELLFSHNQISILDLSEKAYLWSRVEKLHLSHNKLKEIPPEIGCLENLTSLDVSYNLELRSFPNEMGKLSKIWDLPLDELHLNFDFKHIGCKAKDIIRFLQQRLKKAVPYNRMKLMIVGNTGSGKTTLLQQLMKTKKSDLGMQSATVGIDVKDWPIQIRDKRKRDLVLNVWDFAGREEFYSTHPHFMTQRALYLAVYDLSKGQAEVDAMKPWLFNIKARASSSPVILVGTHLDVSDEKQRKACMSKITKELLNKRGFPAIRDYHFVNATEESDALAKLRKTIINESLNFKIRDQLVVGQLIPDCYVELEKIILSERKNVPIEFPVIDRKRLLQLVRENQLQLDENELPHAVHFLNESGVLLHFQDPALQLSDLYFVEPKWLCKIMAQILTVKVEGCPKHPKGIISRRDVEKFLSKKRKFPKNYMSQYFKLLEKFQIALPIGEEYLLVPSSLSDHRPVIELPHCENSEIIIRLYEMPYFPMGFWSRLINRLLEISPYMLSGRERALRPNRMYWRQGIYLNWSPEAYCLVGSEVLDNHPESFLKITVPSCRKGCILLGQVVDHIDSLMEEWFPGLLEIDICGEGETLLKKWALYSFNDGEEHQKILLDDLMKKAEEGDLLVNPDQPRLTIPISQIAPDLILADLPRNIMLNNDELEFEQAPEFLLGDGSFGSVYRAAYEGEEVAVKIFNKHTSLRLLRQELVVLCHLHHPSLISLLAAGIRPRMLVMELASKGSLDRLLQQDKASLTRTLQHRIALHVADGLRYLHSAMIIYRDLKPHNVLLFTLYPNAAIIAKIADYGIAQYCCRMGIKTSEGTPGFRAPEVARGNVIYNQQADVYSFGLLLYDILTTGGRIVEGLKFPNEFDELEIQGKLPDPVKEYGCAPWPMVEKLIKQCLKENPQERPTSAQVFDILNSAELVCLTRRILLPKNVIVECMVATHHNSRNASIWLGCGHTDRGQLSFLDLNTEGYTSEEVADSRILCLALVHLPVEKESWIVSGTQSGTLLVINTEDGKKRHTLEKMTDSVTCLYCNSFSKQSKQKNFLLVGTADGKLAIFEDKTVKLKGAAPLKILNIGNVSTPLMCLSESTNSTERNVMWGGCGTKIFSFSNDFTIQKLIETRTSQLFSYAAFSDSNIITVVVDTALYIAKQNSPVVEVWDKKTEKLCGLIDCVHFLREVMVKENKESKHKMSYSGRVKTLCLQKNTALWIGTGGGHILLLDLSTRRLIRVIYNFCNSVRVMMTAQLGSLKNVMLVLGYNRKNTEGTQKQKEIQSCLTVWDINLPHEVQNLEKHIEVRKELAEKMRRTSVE
# Excerpt: (§3) Plasmids encoding various LRRK2 and Rab GTPase protein variants were transiently expressed in HEK293 cells using Lipofectamine®2000 according to the manufacturer’s instructions (Thermo Fisher Scientific, US).
# (§4) HEK293 cells grown in clear-bottom 96-well plates were transfected with either wild type LRRK2, kinase overactive variant G2019S, inhibition-resistant mutant A2016T or mock, respectively. […] Subsequently, the plates were processed as previously described.
# LRRK2 G2019S = biological target: T1, LRRK2 G2019S (Homo sapiens, UniProt Q5S007, G2019S); test: as above; format: cell-based; details: transiently transfected HEK293 cells, overactive variant G2019S, 1 h, mean, n = 3
# T1 construct: expressed in transfected cells; host or cells: HEK293
# T1 sequence (Q5S007 whole entry G2019S): as the sequence (Q5S007 whole entry) above, with G2019S counted along it
# Excerpt: as §3, §4
# LRRK2 A2016T = biological target: T2, LRRK2 A2016T (Homo sapiens, UniProt Q5S007, A2016T); test: as above; format: cell-based; details: transiently transfected HEK293 cells, inhibition resistant mutant A2016T, 1 h, mean, n = 3
# T2 construct: expressed in transfected cells; host or cells: HEK293
# T2 sequence (Q5S007 whole entry A2016T): as the sequence (Q5S007 whole entry) above, with A2016T counted along it
# Excerpt: as §3, §4
# CDK9 = tested on: T3, CDK9; test: KiNativ profiling in human PBMCs; format: binding; details: Lys2
# T3 construct: purchased ActivX Technologies (KiNativ)
# PKD3 = tested on: T4, PKD3; test: KiNativ profiling in human PBMCs; format: binding
# T4 construct: purchased ActivX Technologies (KiNativ)
# ITK = tested on: T5, ITK; test: KiNativ profiling in human PBMCs; format: binding; details: Activation Loop
# T5 construct: purchased ActivX Technologies (KiNativ)
# PKN2 = tested on: T6, PKN2; test: KiNativ profiling in human PBMCs; format: binding; details: Lys2
# T6 construct: purchased ActivX Technologies (KiNativ)
# FAK = tested on: T7, FAK; test: KiNativ profiling in human PBMCs; format: binding; details: Activation Loop
# T7 construct: purchased ActivX Technologies (KiNativ)
# ITPK1 = tested on: T8, ITPK1; test: KiNativ profiling in human PBMCs; format: binding; details: ATP
# T8 construct: purchased ActivX Technologies (KiNativ)
# TGFbR2 = tested on: T9, TGFbR2; test: KiNativ profiling in human PBMCs; format: binding; details: Lys2
# T9 construct: purchased ActivX Technologies (KiNativ)
# VRK2 = tested on: T10, VRK2; test: KiNativ profiling in human PBMCs; format: binding; details: Lys2
# T10 construct: purchased ActivX Technologies (KiNativ)
# NEK3 = tested on: T11, NEK3; test: KiNativ profiling in human PBMCs; format: binding; details: Activation Loop
# T11 construct: purchased ActivX Technologies (KiNativ)
# PI4KA, PI4KAP2 = test: KiNativ profiling in human PBMCs; format: binding; details: ATP
smiles,measurement,setting,value
Cc1cccc(-c2cc(Nc3ccn(C)n3)nc3[nH]cc(C#N)c23)c1 [Lu AF58786],"reduced level of phosphorylation, Ser106 on Rab12",RAB12,approximately 2 fold
same,"reduced level of phosphorylation, Thr73 on Rab10",RAB10,approximately 2 fold
same,RTEL1 expression level downregulated,[1],2 fold
same,LRRK2 down-regulated on the protein level,LRRK2,approximately 1.7 fold
same,IC50,LRRK2 WT,12 nM
same,IC50,LRRK2 G2019S,19 nM
same,IC50,LRRK2 A2016T,93 nM
Cn1cc(-c2c[nH]c3ncnc(N4CCOCC4)c23)cc1C#N [PFE-360],% Inhibition,CDK9; 0.1µM,-8.9%
same,% Inhibition,CDK9; 1µM,-4.4%
same,% Inhibition,"PKD3; 0.1µM, Lys1",1.2%
same,% Inhibition,"PKD3; 0.1µM, Lys2",17.6%
same,% Inhibition,"PKD3; 1µM, Lys1",-10.7%
same,% Inhibition,"PKD3; 1µM, Lys2",-1.1%
same,% Inhibition,ITK; 0.1µM,3.5%
same,% Inhibition,ITK; 1µM,-4.7%
same,% Inhibition,PKN2; 0.1µM,-3%
same,% Inhibition,PKN2; 1µM,-20%
same,% Inhibition,FAK; 0.1µM,2.6%
same,% Inhibition,FAK; 1µM,26.4%
same,% Inhibition,ITPK1; 0.1µM,-34%
same,% Inhibition,ITPK1; 1µM,-34.7%
same,% Inhibition,TGFbR2; 0.1µM,-5.4%
same,% Inhibition,TGFbR2; 1µM,-16.3%
same,% Inhibition,VRK2; 0.1µM,-2.9%
same,% Inhibition,VRK2; 1µM,8.4%
same,% Inhibition,NEK3; 0.1µM,-10.8%
same,% Inhibition,NEK3; 1µM,1.2%
same,% Inhibition,"PI4KA, PI4KAP2; 0.1µM",-6%
same,% Inhibition,"PI4KA, PI4KAP2; 1µM",4.4%
